Experimental findings from BindingDB's records for doi:10.1002/1439-7633(20010601)2 (Universit&Eacute, 2001) are described below.

pIC50: −log10 of the molar value.

Chain of Acetylcholinesterase (P07692 whole entry): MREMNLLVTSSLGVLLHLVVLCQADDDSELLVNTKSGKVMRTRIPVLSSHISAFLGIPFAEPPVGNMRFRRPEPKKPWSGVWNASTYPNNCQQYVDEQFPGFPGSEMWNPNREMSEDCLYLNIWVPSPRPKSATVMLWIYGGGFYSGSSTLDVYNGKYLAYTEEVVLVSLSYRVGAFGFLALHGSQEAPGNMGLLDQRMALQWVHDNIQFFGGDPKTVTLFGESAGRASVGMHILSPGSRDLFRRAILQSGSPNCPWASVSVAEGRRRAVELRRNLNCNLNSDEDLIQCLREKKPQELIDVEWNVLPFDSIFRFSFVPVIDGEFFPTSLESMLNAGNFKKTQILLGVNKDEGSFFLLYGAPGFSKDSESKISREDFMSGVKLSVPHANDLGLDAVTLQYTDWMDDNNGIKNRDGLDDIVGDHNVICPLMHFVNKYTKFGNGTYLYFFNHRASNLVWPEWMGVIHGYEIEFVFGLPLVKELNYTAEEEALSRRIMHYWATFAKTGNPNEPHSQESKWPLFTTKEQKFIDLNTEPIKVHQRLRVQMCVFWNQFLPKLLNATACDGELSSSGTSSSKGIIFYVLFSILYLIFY

The assay concerns the target Acetylcholinesterase (Torpedo marmorata, UniProt P07692). In words: Enzyme Assay. The note with it: pH 4; 25 °C. The protocol:
The inhibitory activity of the equilibrated mixtures was determined. The activity of AChE was monitored by following the linear change in absorbance at 412 nm over 30s at 25C.
As a reminder, the pIC50 is the IC50 on a negative log10 scale, so that one unit is a factor of ten. The low end stands for a large IC50, the high end for a small IC50. The compound `c1cc[n+](CCCCCCCCCC[n+]2ccccc2)cc1` [1,10-di(1-pyridiniumyl)decane; diiodide] gave a pIC50 of 7.59.

`c1cc[n+](CCCCCCCCCCCC[n+]2ccccc2)cc1` [1,12-Bis(pyridinium)dodecane] had a pIC50 of 7.80.

In turn, `C[N+](C)(C)CCCCCCCCCCCC[N+](C)(C)C` [N1,N1,N1,N12,N12,N12-hexamethyldodecane-1,12-diaminium bromide] showed a pIC50 of 7.03. With `O=C(C[n+]1ccccc1)N/N=C/c1ccc(/C=N/NC(=O)C[n+]2ccccc2)cc1` [Terephthalaldehyde, 4-I-4] the figure was 8.64.
